Structures can show the parent of a compound that is named as a salt.

Data set [1] addresses T1, Human COX-1 (Homo sapiens, UniProt P23219).
T1 construct: A 2.0 kb fragment containing the coding region of either human or murine COX-1 or human or murine COX-2; made in house; host or cells: SF9 insect cells (baculovirus, transfer vector pVL1393)
The experiment in a line: Fast assay for COX-1 and COX-2 activity (PGE2 ELISA), COX-1. The data set is classed as biochemical. The note with it: Table II, pre-incubated 10 minutes at 25° C., arachidonic acid 10 μM, stopped after two minutes, pH 7.5. The procedure: (§1) Recombinant baculoviruses were isolated by transfecting 4 μg of baculovirus transfer vector DNA into SF9 insect cells (2×10^8) along with 200 ng of linearized baculovirus plasmid DNA by the calcium phosphate method. See M. D. Summers and G. E. Smith, A Manual of Methods for Baculovirus Vectors and Insect Cell Culture Procedures, Texas Agric. Exp. Station Bull. […] Recombinant viruses were purified by three rounds of plaque purification and high titer (10^7-10^8 pfu/mL) stocks of virus were prepared. For large scale production, SF9 insect cells were infected in 10 liter fermentors (0.5×10^6/mL) with the recombinant baculovirus stock such that the multiplicity of infection was 0.1. After 72 hours the cells were centrifuged and the cell pellet homogenized in Tris/Sucrose (50 mM: 25%, pH 8.0) containing 1% 3-[(3-cholamidopropyl)dimethylammonio]-1-propanesulfonate (CHAPS). The homogenate was centrifuged at 10,000×G for 30 minutes, and the resultant supernatant was stored at −80° C. before being assayed for COX activity.
COX activity was assayed as PGE2 formed/μg protein/time using an ELISA to detect the prostaglandin released. CHAPS-solubilized insect cell membranes containing the appropriate COX enzyme were incubated in a potassium phosphate buffer (0.05 M Potassium phosphate, pH 7.5, 2 μM phenol, 1 μM heme, 300 μM epinephrine) with the addition of 20 μl of 100 μM arachidonic acid (10 μM). Compounds were pre-incubated with the enzyme for 10 minutes at 25° C. prior to the addition of arachidonic acid. […] The PGE2 formed was measured by standard ELISA technology (Cayman Chemical).

In data set [2] the target is T2, Human COX-2 (Homo sapiens, UniProt P35354).
T2 construct: A 2.0 kb fragment containing the coding region of either human or murine COX-1 or human or murine COX-2; made in house; host or cells: SF9 insect cells (baculovirus, transfer vector pVL1393)
T2 sequence (P35354 18-604): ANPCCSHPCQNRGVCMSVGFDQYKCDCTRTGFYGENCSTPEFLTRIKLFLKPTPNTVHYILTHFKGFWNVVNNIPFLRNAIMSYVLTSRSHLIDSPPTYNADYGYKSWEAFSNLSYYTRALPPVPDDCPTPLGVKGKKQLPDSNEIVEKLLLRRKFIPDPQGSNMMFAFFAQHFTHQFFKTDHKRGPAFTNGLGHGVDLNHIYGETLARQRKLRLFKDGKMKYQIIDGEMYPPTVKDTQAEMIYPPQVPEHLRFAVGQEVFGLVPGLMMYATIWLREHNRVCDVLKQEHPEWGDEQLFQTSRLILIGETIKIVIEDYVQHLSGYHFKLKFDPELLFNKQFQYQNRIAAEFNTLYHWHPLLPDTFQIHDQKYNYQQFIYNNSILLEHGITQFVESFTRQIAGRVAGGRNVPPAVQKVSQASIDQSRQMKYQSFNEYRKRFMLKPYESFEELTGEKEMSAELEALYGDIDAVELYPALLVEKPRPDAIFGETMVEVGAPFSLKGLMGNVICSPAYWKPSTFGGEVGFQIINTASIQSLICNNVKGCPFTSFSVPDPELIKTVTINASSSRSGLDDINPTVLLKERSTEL
The experiment in a line: Assay for COX-1 and COX-2 activity (PGE2 ELISA, recombinant enzyme), COX-2. The data set is classed as biochemical. Particulars: Table I; pre-incubated 10-20 minutes, arachidonic acid 10 μM, stopped after ten minutes, pH 8.0. How it is done: The COX-2 inhibition activity of the compounds of this invention illustrated in the Examples was determined by the following methods.
(§2) Recombinant COX-1 and COX-2 were prepared as described by Gierse et al, [[…]., 305, 479-84 (1995)]. A 2.0 kb fragment containing the coding region of either human or murine COX-1 or human or murine COX-2 was cloned into a BamH1 site of the baculovirus transfer vector pVL1393 (Invitrogen) to generate the baculovirus transfer vectors for COX-1 and COX-2 in a manner similar to the method of D. R. O'Reilly et al (Baculovirus Expression Vectors: A Laboratory Manual (1992)). Recombinant baculoviruses were isolated by transfecting 4 μg of baculovirus transfer vector DNA into SF9 insect cells (2×10^8) along with 200 ng of linearized baculovirus plasmid DNA by the calcium phosphate method. See M. D. Summers and G. E. Smith, A Manual of Methods for Baculovirus Vectors and Insect Cell Culture Procedures, Texas Agric. Exp. Station Bull. 1555 (1987). Recombinant viruses were purified by three rounds of plaque purification and high titer (10^7-10^8 pfu/mL) stocks of virus were prepared. For large scale production, SF9 insect cells were infected in 10 liter fermentors (0.5×10^6/mL) with the recombinant baculovirus stock such that the multiplicity of infection was 0.1. After 72 hours the cells were centrifuged and the cell pellet homogenized in Tris/Sucrose (50 mM: 25%, pH 8.0) containing 1% 3-[(3-cholamidopropyl)dimethylammonio]-1-propanesulfonate (CHAPS). The homogenate was centrifuged at 10,000×G for 30 minutes, and the resultant supernatant was stored at −80° C. before being assayed for COX activity.
COX activity was assayed as PGE2 formed/μg protein/time using an ELISA to detect the prostaglandin released. CHAPS-solubilized insect cell membranes containing the appropriate COX enzyme were incubated in a potassium phosphate buffer (50 mM, pH 8.0) containing epinephrine, phenol, and heme with the addition of arachidonic acid (10 μM). Compounds were pre-incubated with the enzyme for 10-20 minutes prior to the addition of arachidonic acid. Any reaction between the arachidonic acid and the enzyme was stopped after ten minutes at 37° C./room temperature by transferring 40 μl of reaction mix into […] and 25 μM indomethacin. The PGE2 formed was measured by standard ELISA technology (Cayman Chemical).

Data set [3] deals with T1, Human COX-1. The experiment in a line: Assay for COX-1 and COX-2 activity (PGE2 ELISA, recombinant enzyme), COX-1. The data set is classed as biochemical. Particulars: Table I; pre-incubated 10-20 minutes, arachidonic acid 10 μM, stopped after ten minutes, pH 8.0. The procedure:
as §1
COX activity was assayed as PGE2 formed/μg protein/time using an ELISA to detect the prostaglandin released. CHAPS-solubilized insect cell membranes containing the appropriate COX enzyme were incubated in a potassium phosphate buffer (50 mM, pH 8.0) containing epinephrine, phenol, and heme with the addition of arachidonic acid (10 μM). Compounds were pre-incubated with the enzyme for 10-20 minutes prior to the addition of arachidonic acid. […] The PGE2 formed was measured by standard ELISA technology (Cayman Chemical).

Data set [4] addresses T2, Human COX-2. The experiment in a line: Fast assay for COX-1 and COX-2 activity (PGE2 ELISA), COX-2. The note with it: Table II, pre-incubated 10 minutes at 25° C., arachidonic acid 10 μM, stopped after two minutes, pH 7.5. The data set is classed as biochemical. The procedure:
as §2
COX activity was assayed as PGE2 formed/μg protein/time using an ELISA to detect the prostaglandin released. CHAPS-solubilized insect cell membranes containing the appropriate COX enzyme were incubated in a potassium phosphate buffer (0.05 M Potassium phosphate, pH 7.5, 2 μM phenol, 1 μM heme, 300 μM epinephrine) with the addition of 20 μl of 100 μM arachidonic acid (10 μM). Compounds were pre-incubated with the enzyme for 10 minutes at 25° C. prior to the addition of arachidonic acid. Any reaction between the arachidonic acid and the enzyme was stopped after two minutes at 37° C./room temperature by transferring 40 μl of reaction mix into 160 μl ELISA buffer and 25 μM indomethacin. The PGE2 formed was measured by standard ELISA technology (Cayman Chemical).

T1 sequence (P23219 24-599): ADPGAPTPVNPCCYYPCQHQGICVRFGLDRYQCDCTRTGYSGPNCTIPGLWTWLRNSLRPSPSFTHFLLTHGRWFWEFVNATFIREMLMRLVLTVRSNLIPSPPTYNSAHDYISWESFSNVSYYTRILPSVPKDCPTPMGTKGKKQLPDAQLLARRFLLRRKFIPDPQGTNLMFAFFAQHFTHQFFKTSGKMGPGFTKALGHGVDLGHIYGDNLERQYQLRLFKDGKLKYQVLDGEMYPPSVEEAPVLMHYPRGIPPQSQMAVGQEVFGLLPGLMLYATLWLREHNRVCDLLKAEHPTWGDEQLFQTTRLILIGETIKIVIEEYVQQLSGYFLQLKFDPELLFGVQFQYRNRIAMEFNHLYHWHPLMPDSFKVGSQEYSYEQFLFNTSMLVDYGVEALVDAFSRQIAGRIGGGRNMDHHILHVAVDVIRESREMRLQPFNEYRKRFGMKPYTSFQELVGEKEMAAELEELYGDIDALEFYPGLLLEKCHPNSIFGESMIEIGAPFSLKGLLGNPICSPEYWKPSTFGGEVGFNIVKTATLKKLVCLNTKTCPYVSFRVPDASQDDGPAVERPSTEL

In the case of `CS(=O)(=O)c1ccc(-c2cc(C(F)F)nn2C2CCCCC2)cc1F` [Example 19, 1-Cyclohexyl-3-(difluoromethyl)-5-[3-fluoro-4-(methylsulfonyl)phenyl]-1H-pyrazole], the IC50 against Human COX-1 [1] is > 100 µM; on Human COX-2 [2], 0.7 µM; on Human COX-1 [3], > 100 µM; at Human COX-2 [4], 0.34 µM. Take `CS(=O)(=O)c1ccc(-c2cc(C(F)(F)F)nn2-c2cccc(C(F)(F)F)c2)cc1F` [Example 13, 5-[3-Fluoro-4-(methylsulfonyl)phenyl]-3-(trifluoromethyl)-1-[3-(trifluoromethyl)phenyl]-1H-pyrazole]: the IC50 is > 100 µM on Human COX-1 [1], 0.18 µM on Human COX-2 [2], > 100 µM at Human COX-1 [3] and 0.15 µM against Human COX-2 [4].

As for `COc1ccc(-c2cc(C(F)(F)F)nn2-c2ccc(S(N)(=O)=O)c(F)c2)cc1` [Example 7, 2-Fluoro-4-[5-(4-methoxyphenyl)-3-(trifluoromethyl)-1H-pyrazol-1-yl]benzenesulfonamide], the IC50 was determined as 0.005 µM at Human COX-2 [2] and 0.004 µM against Human COX-2 [4]. `Cc1ccc(-c2cc(C(F)(F)F)nn2-c2ccc(S(N)(=O)=O)c(F)c2)cc1` [Example 4, 4-[5-(4-Methylphenyl)-3-(trifluoromethyl)-1H-pyrazol-1-yl]-2-fluorobenzenesulfonamide]: the IC50 on Human COX-1 [1] came to 20.3 µM; at Human COX-2 [2], 0.019 µM; at Human COX-1 [3] it was 40.5 µM; on Human COX-2 [4] it was 0.006 µM. Turning to `CS(=O)(=O)c1ccc(-c2cc(C(F)F)nn2-c2cccc(C(F)(F)F)c2)cc1F` (as salt: trifluoroacetate) [Example 21], the melting point lay in the range of 110 to 111 °C. For `COc1ccccc1-c1cc(C(F)(F)F)nn1-c1ccc(S(N)(=O)=O)c(F)c1` [Example 9, 2-Fluoro-4-[5-(2-methoxyphenyl)-3-(trifluoromethyl)-1H-pyrazol-1-yl]benzenesulfonamide], the IC50 at Human COX-1 [1] is > 100 µM; on Human COX-2 [2] it was 0.25 µM; at Human COX-1 [3] it was > 100 µM; against Human COX-2 [4] it was 0.18 µM. Turning to `COc1ccccc1-c1cc(C(F)(F)F)nn1-c1ccc(S(N)(=O)=O)c(F)c1` (as salt: trifluoroacetate) [Example 9, 2-Fluoro-4-[5-(2-methoxyphenyl)-3-(trifluoromethyl)-1H-pyrazol-1-yl]benzenesulfonamide], the melting point lay within 159 to 160 °C.

For `COc1ccc(-c2cc(C(F)(F)F)nn2-c2ccc(S(N)(=O)=O)c(F)c2)cc1F` (as salt: trifluoroacetate) [Example 6, 4-[5-(3-Fluoro-4-methoxy)-3-trifluoromethyl-1H-pyrazol-1-yl]-2-fluorobenzenesulfonamide], the melting point was in the range of 124 to 126 °C.

`CS(=O)(=O)c1ccc(-c2cc(C(F)F)nn2C2CCCCC2)cc1F` (as salt: trifluoroacetate) [Example 19, 1-Cyclohexyl-3-(difluoromethyl)-5-[3-fluoro-4-(methylsulfonyl)phenyl]-1H-pyrazole] showed a melting point of 138 to 139 °C. As for `Cc1onc(-c2ccccc2)c1-c1ccc(S(N)(=O)=O)c(F)c1` [Example 23], the melting point was 180 to 182 °C. Take `COc1ccc(-c2cc(C(F)F)nn2-c2ccc(S(N)(=O)=O)c(F)c2)cc1F` [Example 10, 4-[3-(Difluoromethyl)-5-(3-fluoro-4-methoxyphenyl)-1H-pyrazol-1-yl]-2-fluorobenzenesulfonamide]: the melting point was 167 to 169 °C. For the same molecule, on Human COX-2 [2], the IC50 came out at 0.11 µM. On Human COX-1 [3], the IC50 was > 100 µM. Regarding `NS(=O)(=O)c1ccc(-n2nc(C(F)(F)F)cc2-c2ccc(F)cc2)cc1F` (as salt: trifluoroacetate) [Example 8, 2-Fluoro-4-[5-(4-fluorophenyl)-3-(trifluoromethyl)-1H-pyrazol-1-yl]benzenesulfonamide], the melting point lay within 127 to 130 °C.

`CS(=O)(=O)c1ccc(-c2cc(C(F)F)nn2-c2ccc(F)cc2)cc1F` (as salt: trifluoroacetate) [Example 18, 3-(Difluoromethyl)-5-[3-fluoro-4-(methylsulfonyl)phenyl]-1-(4-fluorophenyl)-1H-pyrazole] showed a melting point of 201 to 202 °C. In turn, `Cc1ccc(-c2cc(C(F)(F)F)nn2-c2ccc(S(N)(=O)=O)c(F)c2)cc1` (as salt: trifluoroacetate) [Example 4, 4-[5-(4-Methylphenyl)-3-(trifluoromethyl)-1H-pyrazol-1-yl]-2-fluorobenzenesulfonamide] displayed a melting point of 126 to 128 °C.

On to `Cc1ccc(-n2nc(C(F)F)cc2-c2ccc(S(C)(=O)=O)c(F)c2)cc1Cl` (as salt: trifluoroacetate) [Example 20, 1-(3-Chloro-4-methylphenyl)-3-(difluoromethyl)-5-[3-fluoro-4-(methylsulfonyl)phenyl]-1H-pyrazole], for which the melting point was 146 to 147 °C. The same measure, in the same setting: the figure for `NS(=O)(=O)c1ccc(-n2nc(C(F)(F)F)cc2-c2ccc(Cl)cc2)cc1F` (as salt: trifluoroacetate) [Example 5, 4-[5-(4-Chlorophenyl)-3-trifluoromethyl-1H-pyrazol-1-yl]-2-fluorobenzenesulfonamide] is 140 to 141 °C.
